Results published in patent publication US20210000981A1, “CONJUGATED POLYCATIONIC POLYMERS, METHODS OF USING THE SAME AND METHODS OF TREATING AUTOIMMUNE DISEASES, INFECTIOUS DISEASES AND ACUTE RADIATION EXPOSURE” (Duke University, priority 2015, published 2021).

Tests used:
NZBW F1 mice = details: mouse, in vivo
DNA in plasmid form = assay: Plasmid DNA binding and LMWH displacement, agarose gel; details: 60° C. with agitation
Protocol: Using the biotinylated form of the polymer we have established a protocol to displace the DAMPs that are bound to the polymer using low-molecular weight heparin (LMWH). This method was validated by electrophoretic mobility shift assay (EMSA) and TLR stimulation.
(§1) DNA in plasmid form was bound to PAMAM-G3 via co-incubation at room temperature. […] LMWH displacement was executed at 60° C. with agitation of the DNA-polymer complex.

TLR = TLR reporter cell assays with DNA-polymer complex and LMWH; format: cell-based
Protocol: as §1

[1] = test system: NA-sensing TLRs (TLR3, 7, 8 and 9); assay: Inhibition of nucleic acid based TLR agonists by NASs; details: in vitro and in vivo

[NH2(CH2)2NH2]:(G=3); dendri PAMAM(NH2)32 [PAMAM-G3]
maximum tolerated dose (MTD) (NZBW F1 mice): 100 to 200 mg/kg

low-molecular weight heparin [LMWH]
displacement of DNA from DNA-polymer complex (DNA in plasmid form): Displacement of the DNA was also verified | TLR activation after displacement of DNA from polymer (TLR): elevated TLR activation | TLR activation, alone (TLR): no activation alone

protamine sulfate
activities of nucleic acid based TLR agonists (CpG oligos, Poly I:C, ssRNA40/LyoVec) [1]: counteract the activities of multiple nucleic acid based TLR agonists in vitro and in vivo
